Measurements published in US20070117743A1, “New antitumoral compounds” (priority 2003, published 2007).
Read-outs that look alike come from different tables or passages of the source. *1 amine or outer side, *2 acyl side, *3 side chain or, on linkers, in order; H or OH if unused. Where a SMILES comes first, the peptide text is derived from it. Bridges are numbered along the chain shown (N, C = ends). [ ]: non-standard residue; d: D form. The star is where a group is joined. X3 = CN(C)C(=NCCC[C@H](N[*:1])C(=O)[*:2])N(C)c1ccccc1; X2 = CN(C)C(=NCCC[C@H](N[*:1])C(=O)[*:2])N1CCCC1; X1 = CN(C)C(=NCCC[C@H](N[*:1])C(=O)[*:2])N(C)C; d(aIle) = CC[C@H](C)[C@@H](N)C(=O)O; d(aThr) = C[C@@H](O)[C@@H](N)C(=O)O; Hexanoyl(5-Me) = CC(C)CCCC(=O)*; Dhb = C/C=C(\N)C(=O)O

Experiments:
Type in all cases: cell-based, human
HT-29 = assay: SRB colorimetric assay of cell growth and viability, HT-29; details: 48 hours exposure; for GI50: read-out: GI50 HT-29; for CC50: read-out: LC50 HT-29
Excerpt: (§1) The finality of this assay is to interrupt the growth of a “in vitro” tumor cell culture by means a continued exhibition of the cells to the sample to be testing.
(§2) This form of the assay employs 96 well cell culture microplates of 9 mm diameter (Faircloth, 1988; Mosmann, 1983). Most of the cell lines are obtained from American Type Culture Collection (ATCC) derived from different human cancer types.
(§3) Cells are maintained in RPMI 1640 10% FBS, supplemented with 0.1 g/l penicillin and 0.1 g/l streptomycin sulfate and then incubated at 37° C., 5% CO2 and 98% humidity. For the experiments, cells were harvested from subconfluent cultures using trypsin and resuspended in fresh medium before plating.
(§4) Cells are seeded in 96 well microtiter plates, at 5×10^3 cells per well in aliquots of 195 μL medium, and they are allowed to attach to the plate surface by growing in drug free medium for 18 hours. Afterward, samples are added in aliquots of 5 μL in a ranging from 10 to 10^−8 μg/mL, dissolved in DMSO:EtOH:PBS (0.5:0.5:99). After 48 hours exposure, the antitumor effect are measured by the SRB methodology: cells are fixed by adding 50 μL of cold 50% (wt/vol) trichloroacetic acid (TCA) and incubating for 60 minutes at 4° C. Plates are washed with deionized water and dried. One hundred μL of SRB solution (0.4% wt/vol in 1% acetic acid) is added to each microtiter well and incubated for 10 minutes at room temperature. Unbound SRB is removed by washing with 1% acetic acid. Plates are air dried and bound stain is solubilized with Tris buffer. Optical densities are read on a automated spectrophotometric plate reader at a single wavelength of 490 nm.
(§5) The values for mean+/− SD of data from triplicate wells are calculated. Some parameters for cellular responses can be calculated: GI=growth inhibition, TGI=total growth inhibition (cytostatic effect) and LC=cell killing (cytotoxic effect).

A-549 = assay: SRB colorimetric assay of cell growth and viability, A-549; details: 48 hours exposure; for GI50: read-out: GI50 A-549; for CC50: read-out: LC50 A-549
Excerpt: as §1, §2, §3, §4, §5

LoVo = assay: SRB colorimetric assay of cell growth and viability, LoVo; details: 48 hours exposure; for CC50: read-out: LC50 LOVO
Excerpt: as §1, §2, §3, §4, §5

K-562 = assay: SRB colorimetric assay of cell growth and viability, K-562; details: 48 hours exposure; for CC50: read-out: LC50 K-562
Excerpt: as §1, §2, §3, §4, §5

IGROV-ET = assay: SRB colorimetric assay of cell growth and viability, IGROV-ET; details: 48 hours exposure; for CC50: read-out: LC50 IGROV-ET
Excerpt: as §1, §2, §3, §4, §5

HeLa = assay: SRB colorimetric assay of cell growth and viability, HeLa; details: 48 hours exposure; for CC50: read-out: LC50 HELA
Excerpt: as §1, §2, §3, §4, §5

DU-145 = assay: SRB colorimetric assay of cell growth and viability, DU-145; details: 48 hours exposure
Excerpt: as §1, §2, §3, §4, §5

HeLa-APL = assay: SRB colorimetric assay of cell growth and viability, HeLa-APL; details: 48 hours exposure; for CC50: read-out: LC50 HELA-APL
Excerpt: as §1, §2, §3, §4, §5

IGROV-1 = assay: SRB colorimetric assay of cell growth and viability, IGROV-1; details: 48 hours exposure
Excerpt: as §1, §2, §3, §4, §5

SK-MEL-28 = assay: SRB colorimetric assay of cell growth and viability, SK-MEL-28; details: 48 hours exposure; for CC50: read-out: LC50 MEL-28
Excerpt: as §1, §2, §3, §4, §5

PANC-1 = assay: SRB colorimetric assay of cell growth and viability, PANC-1; details: 48 hours exposure; for CC50: read-out: LC50 PANC-1
Excerpt: as §1, §2, §3, §4, §5

LoVo-Dox = assay: SRB colorimetric assay of cell growth and viability, LoVo-Dox; details: 48 hours exposure; for CC50: read-out: LC50 LOVO-DOX
Excerpt: as §1
A colorimetric type of assay, using sulforhodamine B (SRB) reaction has been adapted for a quantitative measurement of cell growth and viability [following the technique described by Philip Skehan, et al. (1990), New colorimetric cytotoxicity assay for anticancer drug screening, J. Natl. Cancer Inst., 82:1107-1112].
as §2, §3, §4, §5

SMILES	TGI HT-29 (HT-29) [Molar]	GI50 (HT-29) [µM]	CC50 (HT-29) [µM]	TGI A-549 (A-549) [Molar]	GI50 (A-549) [µM]	CC50 (A-549) [µM]	GI50 (LoVo) [µM]	TGI LOVO (LoVo) [Molar]	CC50 (LoVo) [µM]	GI50 (K-562) [µM]	TGI K-562 (K-562) [Molar]	CC50 (K-562) [µM]	GI50 (IGROV-ET) [µM]	TGI IGROV-ET (IGROV-ET) [Molar]	CC50 (IGROV-ET) [µM]	GI50 (HeLa) [µM]	TGI HELA (HeLa) [Molar]	CC50 (HeLa) [µM]	TGI HT-29 (HT-29; SRB) [Molar]	TGI A-549 (A-549; SRB) [Molar]	further results
C/C=C1\NC(=O)[C@H](Cc2ccccc2)NC(=O)[C@@H](C(C)C)NC(=O)[C@@H]([C@@H](C)CC)NC(=O)[C@H](NC(=O)[C@H](NC(=O)[C@H](CCCN)NC(=O)[C@H]2CCCN2C(=O)[C@H](NC(=O)[C@@H](NC(=O)[C@@H](NC(=O)[C@H](NC(=O)c2ccc3c(c2)OCO3)C(C)C)[C@@H](C)O)C(C)C)C(C)C)[C@@H](C)CC)[C@@H](C)OC(=O)[C@H](C(C)C)NC1=O [Compound 23, [Pipe^14]-KF]	3.30E−07	0.132	0.528	1.98E−06	0.661	4.62															
C/C=C1\NC(=O)[C@H](Cc2ccccc2)NC(=O)[C@@H](C(C)C)NC(=O)[C@@H]([C@@H](C)CC)NC(=O)[C@H](NC(=O)[C@H](NC(=O)[C@H](CCCN)NC(=O)[C@H]2CCCN2C(=O)[C@H](NC(=O)[C@@H](NC(=O)[C@@H](NC(=O)CNC(=O)CCCC(C)C)[C@@H](C)O)C(C)C)C(C)C)[C@@H](C)CC)[C@@H](C)OC(=O)[C@H](C(C)C)NC1=O [Compound 33, [Gly^13]-KF]	6.96E−06	4.51	6.96	3.08E−06	0.982	6.96	3.99	6.96E−06	6.96	6.96	6.96E−06	6.96	5.27	6.96E−06	6.96	0.954	3.22E−06	6.96			GI50 (DU-145): 6.96 µM; LC50 (concentration causing 50% net cell kill) (DU-145): 6.96 µM; TGI DU-145 (DU-145): 6.96E−06 Molar; GI50 (HeLa-APL): 6.96 µM; TGI HELA-APL (HeLa-APL): 6.96E−06 Molar; CC50 (HeLa-APL): 6.96 µM; GI50 (IGROV-1): 6.96 µM; LC50 (concentration causing 50% net cell killing) (IGROV-1): 6.96 µM; TGI IGROV (IGROV-1): 6.96E−06 Molar; GI50 (SK-MEL-28): 6.32 µM; TGI MEL-28 (SK-MEL-28): 6.96E−06 Molar; CC50 (SK-MEL-28): 6.96 µM; GI50 (PANC-1): 0.385 µM; TGI PANC-1 (PANC-1): 1.70E−06 Molar; CC50 (PANC-1): 5.04 µM; GI50 (LoVo-Dox): 4.85 µM; TGI LOVO-DOX (LoVo-Dox): 6.96E−06 Molar; CC50 (LoVo-Dox): 6.96 µM
C/C=C1\NC(=O)[C@H](Cc2ccccc2)NC(=O)[C@@H](C(C)C)NC(=O)[C@@H]([C@@H](C)CC)NC(=O)[C@H](NC(=O)[C@H](NC(=O)[C@H](CCCN)NC(=O)[C@H]2CCCN2C(=O)[C@H](NC(=O)[C@@H](NC(=O)[C@@H](NC(=O)[C@@H](C)NC(=O)CCCC(C)C)[C@@H](C)O)C(C)C)C(C)C)[C@@H](C)CC)[C@@H](C)OC(=O)[C@H](C(C)C)NC1=O [Compound 34, [D-Ala^13]-KF]	2.32E−06	1.25	4.3	3.20E−06	1.98	5.17	0.904	1.77E−06	2.98	1.34	2.66E−06	5.25	1.58	2.56E−06	4.14	1.46	2.43E−06	4.06			GI50 (DU-145): 2.21 µM; LC50 (concentration causing 50% net cell kill) (DU-145): 4.79 µM; TGI DU-145 (DU-145): 3.26E−06 Molar; GI50 (HeLa-APL): 1.59 µM; TGI HELA-APL (HeLa-APL): 2.63E−06 Molar; CC50 (HeLa-APL): 4.34 µM; GI50 (IGROV-1): 1.41 µM; LC50 (concentration causing 50% net cell killing) (IGROV-1): 4.03 µM; TGI IGROV (IGROV-1): 2.38E−06 Molar; GI50 (SK-MEL-28): 1.81 µM; TGI MEL-28 (SK-MEL-28): 3.01E−06 Molar; CC50 (SK-MEL-28): 5 µM; GI50 (PANC-1): 1.28 µM; TGI PANC-1 (PANC-1): 2.58E−06 Molar; CC50 (PANC-1): 5.21 µM; GI50 (LoVo-Dox): 0.35 µM; TGI LOVO-DOX (LoVo-Dox): 9.73E−07 Molar; CC50 (LoVo-Dox): 2.48 µM
C/C=C1\NC(=O)[C@H](Cc2ccccc2)NC(=O)[C@@H](C(C)C)NC(=O)[C@@H]([C@@H](C)CC)NC(=O)[C@H](NC(=O)[C@H](NC(=O)[C@H](CCCN=C(N(C)C)N(C)C)NC(=O)[C@H]2CCCN2C(=O)[C@H](NC(=O)[C@@H](NC(=O)[C@@H](NC(=O)[C@H](NC(=O)CCCC(C)C)C(C)C)[C@@H](C)O)C(C)C)C(C)C)[C@@H](C)CC)[C@@H](C)OC(=O)[C@H](C(C)C)NC1=O [Compound 89, [N(Me)2,N′(Me)2-Arg^8]-Kahalalide F] ({Hexanoyl(5-Me)}-[dV]TV[dV][dP][X1][d(aIle)][d(aThr)][d(aIle)][dV]F[Dhb]V; ester 8-C)																			3.17E−07	4.44E−07	GI50 (HT-29; SRB): 0.0635 µM; CC50 (HT-29; SRB): 0.571 µM; GI50 (A-549; SRB): 0.317 µM; CC50 (A-549; SRB): 0.635 µM
C/C=C1\NC(=O)[C@H](Cc2ccccc2)NC(=O)[C@@H](C(C)C)NC(=O)[C@@H]([C@@H](C)CC)NC(=O)[C@H](NC(=O)[C@H](NC(=O)[C@H](CCCN=C(N(C)C)N(C)c2ccccc2)NC(=O)[C@H]2CCCN2C(=O)[C@H](NC(=O)[C@@H](NC(=O)[C@@H](NC(=O)[C@H](NC(=O)CCCC(C)C)C(C)C)[C@@H](C)O)C(C)C)C(C)C)[C@@H](C)CC)[C@@H](C)OC(=O)[C@H](C(C)C)NC1=O [Compound 90, [N(Me,Ph),N′(ME)2-Arg^8]-Kahalalide F] ({Hexanoyl(5-Me)}-[dV]TV[dV][dP][X3][d(aIle)][d(aThr)][d(aIle)][dV]F[Dhb]V; ester 8-C)																			3.05E−07	4.27E−07	
C/C=C1\NC(=O)[C@H](Cc2ccccc2)NC(=O)[C@@H](C(C)C)NC(=O)[C@@H]([C@@H](C)CC)NC(=O)[C@H](NC(=O)[C@H](NC(=O)[C@H](CCCN=C(N(C)C)N2CCCC2)NC(=O)[C@H]2CCCN2C(=O)[C@H](NC(=O)[C@@H](NC(=O)[C@@H](NC(=O)[C@H](NC(=O)CCCC(C)C)C(C)C)[C@@H](C)O)C(C)C)C(C)C)[C@@H](C)CC)[C@@H](C)OC(=O)[C@H](C(C)C)NC1=O [Compound 91, [N(CH2)4,N′(Me)2-Arg^8]-Kahalalide F] ({Hexanoyl(5-Me)}-[dV]TV[dV][dP][X2][d(aIle)][d(aThr)][d(aIle)][dV]F[Dhb]V; ester 8-C)																			3.12E−07	4.37E−07	GI50 (HT-29; SRB): 0.0624 µM; CC50 (HT-29; SRB): 0.562 µM; GI50 (A-549; SRB): 0.312 µM; CC50 (A-549; SRB): 0.624 µM
